In patent US6737383B1, “Herbicidal oxadiazolidines” (priority 1999, dated 2004):

Columns and labels:
bedstraw = experiment: Test B pre/postemergence bedstraw; format: in vivo, Galium aparine; conditions: Rate 62 g/ha, Postemergence; scale 0 to 10, 0 no effect, 10 complete control
Procedure, shortened: (§1)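 Test chemicals in a non-phytotoxic solvent mixture with surfactant were sprayed preemergence onto planted seeds and postemergence onto plants 2 to 18 cm tall (1- to 4-leaf stage). After twelve to sixteen days in a greenhouse, injury was visually rated against untreated controls from 0 (no effect) to 10 (complete control).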

blackgrass = experiment: Test B pre/postemergence blackgrass; format: in vivo, Alopecurus myosuroides
Procedure, shortened: as §1

surinam grass = experiment: Test B pre/postemergence surinam grass; format: in vivo, Brachiaria decumbens
Procedure, shortened: as §1

corn = experiment: Test B pre/postemergence corn; format: in vivo, Zea mays
Procedure, shortened: as §1

crabgrass = experiment: Test B pre/postemergence crabgrass; format: in vivo, Digitaria sanguinalis
Procedure, shortened: as §1

pigweed = experiment: Test B pre/postemergence pigweed; format: in vivo, Amaranthus retroflexus
Procedure, shortened: as §1

rape = experiment: Test B pre/postemergence rape; format: in vivo, Brassica napus
Procedure, shortened: as §1

soybean = experiment: Test B pre/postemergence soybean; format: in vivo, Glycine max
Procedure, shortened: as §1

sugar beet = experiment: Test B pre/postemergence sugar beet; format: in vivo, Beta vulgaris
Procedure, shortened: as §1

velvetleaf = experiment: Test B pre/postemergence velvetleaf; format: in vivo, Abutilon theophrasti
Procedure, shortened: as §1

wheat = experiment: Test B pre/postemergence wheat; format: in vivo, Triticum aestivum
Procedure, shortened: as §1

wild oat = experiment: Test B pre/postemergence wild oat; format: in vivo, Avena fatua
Procedure, shortened: as §1

purple nutsedge = experiment: Test B pre/postemergence purple nutsedge; format: in vivo, Cyperus rotundus
Procedure, shortened: as §1

rice = experiment: Test B flood test rice; format: in vivo, Oryza sativa
Procedure, shortened: (§2)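 Read-out is a visual response score from 0 (no effect) to 10 (complete control), assigned by comparison with untreated controls. Treatment was applied at the 2-leaf stage, and plants stayed in the greenhouse for twelve to sixteen days before scoring.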

smallflower flatsedge = experiment: Test B flood test smallflower flatsedge; format: in vivo, Cyperus difformis
Procedure, shortened: as §2

duck salad = experiment: Test B flood test duck salad; format: in vivo, Heteranthera limosa
Procedure, shortened: as §2

[1] = Postemergence, Rate 250 g/ha, scale 0 to 10
[2] = Postemergence, Rate 500 g/ha, scale of 0 to 10 where 0 is no effect and 10 is complete control
[3] = Preemergence, Rate 62 g/ha, scale of 0 to 10 where 0 is no effect and 10 is complete control
[4] = Preemergence, Rate 125 g/ha, scale of 0 to 10 where 0 is no effect and 10 is complete control
[5] = Preemergence, Rate 250 g/ha, scale 0 to 10, 0 is no effect, 10 is complete control
[6] = Preemergence, Rate 500 g/ha, scale 0 to 10, 0 is no effect, 10 is complete control
[7] = Rate 62 g/ha, Postemergence, scale 0 to 10, 0 no effect, 10 complete control
[8] = Rate 125 g/ha, Postemergence, scale 0 to 10, 0 is no effect, 10 is complete control
[9] = Rate 62 g/ha, flood test species, Pre-emergence, visual evaluation after twelve to sixteen days
[10] = Rate 125 g/ha, under heading Pre-emergence, flood test species, visual evaluation after twelve to sixteen days
[11] = Rate 250 g/ha, Pre-emergence (flood test species), scale 0 to 10, 0 is no effect, 10 is complete control
[12] = Rate 500 g/ha, Pre-emergence, flood test species, scale 0 to 10 (0 no effect, 10 complete control)

Cc1nc(C)c(C(C)n2c(=O)on(C(=O)N(c3ccc(F)cc3F)C(C)C)c2=O)s1 (stereo not shown) [Compound 443]
9: Crabgrass plant response rating (crabgrass; [5]) | Crabgrass plant response rating (crabgrass; [6])
1: Soybean plant response rating (soybean; [1]) | Soybean plant response rating (soybean; [7]) | Soybean plant response rating (soybean; [8])
0: Bedstraw plant response rating (bedstraw) | Blackgrass plant response rating (blackgrass; [1]) | Blackgrass plant response rating (blackgrass; [2]) | Plant response rating, Blackgrass (blackgrass; [3]) | Plant response rating, Blackgrass (blackgrass; [4]) | Blackgrass plant response rating (blackgrass; [5]) | Blackgrass plant response rating (blackgrass; [6]) | Blackgrass plant response rating (blackgrass; [7]) | Blackgrass plant response rating (blackgrass; [8]) | B. signalgrass plant response rating (surinam grass; Postemergence, Rate 250 g/ha, scale 0 to 10, 0 no effect, 10 complete control) | B. signalgrass plant response rating (surinam grass; [2]) | Plant response rating, B. signalgrass (surinam grass; [3]) | Plant response rating, B. signalgrass (surinam grass; [4]) | B. signalgrass plant response rating (surinam grass; [5]) | B. signalgrass plant response rating (surinam grass; [7]) | B. signalgrass plant response rating (surinam grass; [8]) | Corn plant response rating (corn; [1]) | Corn plant response rating (corn; [2]) | Plant response rating, Corn (corn; [3]) | Plant response rating, Corn (corn; [4]) | Corn plant response rating (corn; [5]) | Corn plant response rating (corn; [6]) | Corn plant response rating (corn; [7]) | Corn plant response rating (corn; [8]) | Crabgrass plant response rating (crabgrass; [1]) | Crabgrass plant response rating (crabgrass; [2]) | Crabgrass plant response rating (crabgrass; [7]) | Crabgrass plant response rating (crabgrass; [8]) | Redroot pigweed plant response rating (pigweed; [1]) | Redroot pigweed plant response rating (pigweed; [2]) | Plant response rating, Redroot pigweed (pigweed; [3]) | Plant response rating, Redroot pigweed (pigweed; [4]) | Redroot pigweed plant response rating (pigweed; [5]) | Redroot pigweed plant response rating (pigweed; [7]) | Redroot pigweed plant response rating (pigweed; [8]) | Rape plant response rating (rape; [1]) | Rape plant response rating (rape; [2]) | Plant response rating, Rape (rape; [3]) | Plant response rating, Rape (rape; [4]) | Rape plant response rating (rape; [5]) | Rape plant response rating (rape; [6]) | Rape plant response rating (rape; [7]) | Rape plant response rating (rape; [8]) | Plant response rating, Soybean (soybean; [3]) | Plant response rating, Soybean (soybean; [4]) | Soybean plant response rating (soybean; [5]) | Soybean plant response rating (soybean; [6]) | Sugarbeets plant response rating (sugar beet; [1]) | Sugarbeets plant response rating (sugar beet; [2]) | Plant response rating, Sugarbeets (sugar beet; [3]) | Plant response rating, Sugarbeets (sugar beet; [4]) | Sugarbeets plant response rating (sugar beet; [5]) | Sugarbeets plant response rating (sugar beet; [6]) | Sugarbeets plant response rating (sugar beet; [7]) | Sugarbeets plant response rating (sugar beet; [8]) | Velvetleaf plant response rating (velvetleaf; [1]) | Velvetleaf plant response rating (velvetleaf; [2]) | Plant response rating, Velvetleaf (velvetleaf; [3]) | Plant response rating, Velvetleaf (velvetleaf; [4]) | Velvetleaf plant response rating (velvetleaf; [5]) | Velvetleaf plant response rating (velvetleaf; [6]) | Velvetleaf plant response rating (velvetleaf; [7]) | Velvetleaf plant response rating (velvetleaf; [8]) | Wheat plant response rating (wheat; [1]) | Wheat plant response rating (wheat; [2]) | Plant response rating, Wheat (wheat; [3]) | Plant response rating, Wheat (wheat; [4]) | Wheat plant response rating (wheat; [5]) | Wheat plant response rating (wheat; [6]) | Wheat plant response rating (wheat; [7]) | Wheat plant response rating (wheat; [8]) | Wild oats plant response rating (wild oat; [1]) | Wild oats plant response rating (wild oat; [2]) | Plant response rating, Wild oats (wild oat; [3]) | Plant response rating, Wild oats (wild oat; [4]) | Wild oats plant response rating (wild oat; [5]) | Wild oats plant response rating (wild oat; [6]) | Wild oats plant response rating (wild oat; [7]) | Wild oats plant response rating (wild oat; [8]) | Nutsedge plant response rating (purple nutsedge; [1]) | Nutsedge plant response rating (purple nutsedge; [2]) | Plant response rating, Nutsedge (purple nutsedge; [3]) | Plant response rating, Nutsedge (purple nutsedge; [4]) | Nutsedge plant response rating (purple nutsedge; [5]) | Nutsedge plant response rating (purple nutsedge; [6]) | Nutsedge plant response rating (purple nutsedge; [7]) | Nutsedge plant response rating (purple nutsedge; [8]) | Plant response rating, Rice (0 to 10 scale, 0 is no effect, 10 is complete control) (rice; [9]) | Rice plant response rating (0 to 10 scale, 0 is no effect, 10 is complete control) (rice; [10]) | Rice plant response rating (rice; [11]) | Rice plant response rating (rice; [12]) | Plant response rating, S. Flatsedge (0 to 10 scale, 0 is no effect, 10 is complete control) (smallflower flatsedge; [9]) | S. Flatsedge plant response rating (0 to 10 scale, 0 is no effect, 10 is complete control) (smallflower flatsedge; [10]) | S. Flatsedge plant response rating (smallflower flatsedge; [11]) | S. Flatsedge plant response rating (smallflower flatsedge; [12]) | Plant response rating, Ducksalad (0 to 10 scale, 0 is no effect, 10 is complete control) (duck salad; [9]) | Ducksalad plant response rating (0 to 10 scale, 0 is no effect, 10 is complete control) (duck salad; [10]) | Ducksalad plant response rating (duck salad; [11]) | Ducksalad plant response rating (duck salad; [12])
6: Plant response rating, Crabgrass (crabgrass; [4]) | Redroot pigweed plant response rating (pigweed; [6])
5: Plant response rating, Crabgrass (crabgrass; [3])
2: Soybean plant response rating (soybean; [2])
10: B. signalgrass plant response rating (surinam grass; [6])
